From patent US20230015478A1, “GLP-1 RECEPTOR AGONISTS HAVING IMPROVED PHARMACOLOGICAL AND DRUG DELIVERY PROPERTIES” (priority 2021, published 2023)
Each block holds one molecule with its values, some of them ahead of it. Square brackets hold non-standard residues; d marks the D form. Peptide text beside a SMILES is read from it. * marks the point of attachment. Dap(Nα-HOOC(CH2)16CO)OH = O=C(O)CCCCCCCCCCCCCCCCC(=O)N[C@@H](CN*)C(=O)O; Phe(2-CF3) = N[C@@H](Cc1ccccc1C(F)(F)F)C(=O)O; Bip = N[C@@H](Cc1ccc(-c2ccccc2)cc1)C(=O)O; X2 = O=C(CCc1ccc(I)cc1)N[C@@H](CN*)C(=O)O; αMePhe(2-F) = C[C@](N)(Cc1ccccc1F)C(=O)O; Phe(2-CN) = N#Cc1ccccc1C[C@H](N)C(=O)O; Phe(2-F) = N[C@@H](Cc1ccccc1F)C(=O)O; hPhe = N[C@@H](CCc1ccccc1)C(=O)O; αMeF = C[C@](N)(Cc1ccccc1)C(=O)O; αMeP = C[C@@]1(C(=O)O)CCCN1; AEEA = NCCOCCOCC(=O)O; Aib = CC(C)(N)C(=O)O

Molecular target: T1, hGLP1 receptor (Homo sapiens, UniProt P43220)
T1 construct: expressed in transfected cells; host or cells: HEK (human embryonic kidney) cells co-expressing hGLP1 receptor and CRE-Luciferase
T1 sequence (P43220 24-463): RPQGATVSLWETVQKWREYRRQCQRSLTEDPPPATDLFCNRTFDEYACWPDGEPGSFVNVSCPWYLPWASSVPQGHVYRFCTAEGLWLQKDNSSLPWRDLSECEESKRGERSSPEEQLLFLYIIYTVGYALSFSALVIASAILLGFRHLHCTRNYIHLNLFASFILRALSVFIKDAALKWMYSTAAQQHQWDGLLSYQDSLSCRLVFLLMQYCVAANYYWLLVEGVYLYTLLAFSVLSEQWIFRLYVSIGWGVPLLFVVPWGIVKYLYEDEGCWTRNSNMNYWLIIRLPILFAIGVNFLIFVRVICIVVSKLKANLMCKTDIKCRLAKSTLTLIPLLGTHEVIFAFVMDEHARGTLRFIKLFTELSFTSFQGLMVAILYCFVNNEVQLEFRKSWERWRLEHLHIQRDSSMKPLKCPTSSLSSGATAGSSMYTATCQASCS
Assay: cAMP HTRF agonist assay in HEK cells co-expressing hGLP1 receptor and CRE-Luciferase
Type: cell-based
Conditions: for EC50: cAMP EC50, nM (0.1% albumin), 0.1% albumin
Procedure: Human embryonic kidney cells (HEK) co-expressing the hGLP1 receptor and CRE-Luciferase construct were used to determine agonist potency in this assay. The cells were thawed briefly at 37° C., transferred to a sterile tube and re-suspended in complete media at 37° C. Cells were centrifuged at 1000 rpm for 5 minutes and cells collected; cells were re-suspended in assay buffer consisting of DPBS (GIBCO) with 500 μM of the phosphodiesterase inhibitor IBMX. […] The optimal cell density was determined to be 1000 cells/well; cells were added to wells in 384-well plates containing appropriate pre-prepared dilutions of compounds (test peptides or reference compound exendin-4), sealed and incubated with CO2 for 30 min. Test peptide solutions were diluted from 10 mM stock solutions; for most peptides an initial run was performed in duplicate from a maximal concentration of 1.0 μM, with 11 concentrations tested for each peptide using serial 1:3 dilution from this maximal concentration. […] The agonist assay was a homogeneous time-resolved fluorescence (HTRF) assay (Cisbio).
Following incubation of the cells for 30 minutes with test or reference peptides, 5 μL of the cAMP acceptor cAMP-d2, prepared previously as a working solution from frozen stock (1:20 dilution), was added to each well of the assay plate, along with 5 μL of anti-cAMP antibody-cryptate working solution (diluted 1:20 from frozen stock). The wells were incubated for 1 hour at room temperature, and fluorescence was then read at 665 and 615 nm with an Envision reader with TRF laser. Data were saved and analyzed using Prism software (GraphPad). Concentration-response analysis was performed using 4-parameter logistic fits of the resulting data, and EC50 values obtained for each test and reference compound.

Compound: C[C@H](NC(=O)CNC(=O)[C@H](CCC(=O)O)NC(=O)C(C)(C)NC(=O)[C@@H](N)Cc1c[nH]cn1)C(=O)N[C@@H](Cc1ccccc1F)C(=O)N[C@H](C(=O)N[C@@H](CO)C(=O)N[C@@H](CC(=O)O)C(=O)N[C@@H](Cc1ccc(-c2ccccc2)cc1)C(=O)N[C@@H](Cc1ccc(-c2ccccc2)cc1)C(N)=O)[C@@H](C)O [3-24, H2N-His-Aib-Glu-Gly-Ala-Phe(2-F)-Thr-Ser-Asp-Bip-Bip-C(O)NH2] (H-H[Aib]EGA[Phe(2-F)]TSD[Bip][Bip]-NH2)
EC50 (Table 2): 28.1 nM

Compound: CC(C)C[C@H](NC(=O)[C@@H](N)Cc1ccccc1)C(=O)NC(C)(C)C(=O)N[C@@H](CCC(=O)O)C(=O)NCC(=O)N[C@H](C(=O)N[C@@](C)(Cc1ccccc1F)C(=O)N[C@H](C(=O)N[C@@H](CO)C(=O)N[C@@H](CC(=O)O)C(=O)N[C@@H](Cc1ccc(-c2ccccc2)cc1)C(=O)N[C@@H](Cc1ccc(-c2ccccc2)cc1)C(N)=O)[C@@H](C)O)[C@@H](C)O [2-8, H2N-Phe-Leu-Aib-Glu-Gly-Thr-α-MePhe(2-F)-Thr-Ser-Asp-Bip-Bip-C(O)NH2] (H-FL[Aib]EGT[αMePhe(2-F)]TSD[Bip][Bip]-NH2)
EC50 (Table 4): 4.1 nM

Compound: C[C@@H](O)[C@H](NC(=O)CNC(=O)[C@H](CCC(=O)O)NC(=O)C(C)(C)NC(=O)[C@@H](N)Cc1c[nH]cn1)C(=O)N[C@H](Cc1ccccc1)C(=O)N[C@H](C(=O)N[C@@H](CO)C(=O)N[C@@H](CC(=O)O)C(=O)N[C@@H](Cc1ccc(-c2ccccc2)cc1)C(=O)N[C@@H](Cc1ccc(-c2ccccc2)cc1)C(N)=O)[C@@H](C)O [3-13, H2N-His-Aib-Glu-Gly-Thr-D-Phe-Thr-Ser-Asp-Bip-Bip-C(O)NH2] (H-H[Aib]EGT[dF]TSD[Bip][Bip]-NH2)
EC50 (Table 1): 57 nM

Compound: C[C@@H](O)[C@H](NC(=O)CNC(=O)[C@H](CCC(=O)O)NC(=O)C(C)(C)NC(=O)[C@@H](N)Cc1c[nH]cn1)C(=O)N[C@@H](Cc1ccccc1C#N)C(=O)N[C@H](C(=O)N[C@@H](CO)C(=O)N[C@@H](CC(=O)O)C(=O)N[C@@H](Cc1ccc(-c2ccccc2)cc1)C(=O)N[C@@H](Cc1ccc(-c2ccccc2)cc1)C(N)=O)[C@@H](C)O [3-6, H2N-His-Aib-Glu-Gly-Thr-Phe(2-CN)-Thr-Ser-Asp-Bip-Bip-C(O)NH2] (H-H[Aib]EGT[Phe(2-CN)]TSD[Bip][Bip]-NH2)
EC50 (Table 1): 33.1 nM

Compound: C[C@@H](O)[C@H](NC(=O)CNC(=O)[C@H](CCC(=O)O)NC(=O)C(C)(C)NC(=O)[C@@H](N)Cc1c[nH]cn1)C(=O)N[C@@H](Cc1ccc(O)cc1)C(=O)N[C@H](C(=O)N[C@@H](CO)C(=O)N[C@@H](CC(=O)O)C(=O)N[C@@H](Cc1ccc(-c2ccccc2)cc1)C(=O)N[C@@H](Cc1ccc(-c2ccccc2)cc1)C(N)=O)[C@@H](C)O [3-12, H2N-His-Aib-Glu-Gly-Thr-Tyr-Thr-Ser-Asp-Bip-Bip-C(O)NH2] (H-H[Aib]EGTYTSD[Bip][Bip]-NH2)
EC50 (Table 1): 7.3 nM

Compound: C[C@@H](O)[C@H](NC(=O)CNC(=O)[C@H](CCC(=O)O)NC(=O)C(C)(C)NC(=O)[C@@H](N)Cc1c[nH]cn1)C(=O)N[C@@H](Cc1ccccc1C(F)(F)F)C(=O)N[C@H](C(=O)N[C@@H](CO)C(=O)N[C@@H](CC(=O)O)C(=O)N[C@@H](Cc1ccc(-c2ccccc2)cc1)C(=O)N[C@@H](Cc1ccc(-c2ccccc2)cc1)C(N)=O)[C@@H](C)O [3-3, H2N-His-Aib-Glu-Gly-Thr-Phe(2-CF3)-Thr-Ser-Asp-Bip-Bip-C(O)NH2] (H-H[Aib]EGT[Phe(2-CF3)]TSD[Bip][Bip]-NH2)
EC50 (Table 1): 97.1 nM

Continued, values first:

EC50 (Table 6): 70.9 nM
fold lower potency than the parent peptide (1-4) (relative to parent 1-4): 15 fold
Compound: C[C@@H](O)[C@H](NC(=O)CNC(=O)[C@H](CCC(=O)O)NC(=O)C(C)(C)NC(=O)[C@@H](N)Cc1c[nH]cn1)C(=O)N[C@@](C)(Cc1ccccc1F)C(=O)N[C@H](C(=O)N[C@@H](CO)C(=O)N[C@@H](CC(=O)O)C(=O)N[C@@H](Cc1ccc(-c2ccccc2)cc1)C(=O)N[C@@H](CCc1ccccc1)C(=O)NCCOCCOCC(=O)NCCOCCOCC(=O)NC[C@H](NC(=O)CCCCCCCCCCCCCCCCC(=O)O)C(=O)O)[C@@H](C)O [4-36, H2N-His-Aib-Glu-Gly-Thr-α-MePhe(2-F)-Thr-Ser-Asp-Bip-Hph-C(O)NH-RY2] (H-H[Aib]EGT[αMePhe(2-F)]TSD[Bip][hPhe][AEEA][AEEA]-{Dap(Nα-HOOC(CH2)16CO)OH})

EC50 (Table 3): 150 nM
Compound: C[C@@H](O)[C@H](NC(=O)CNC(=O)[C@H](CCC(=O)O)NC(=O)C(C)(C)NC(=O)[C@@H](N)Cc1c[nH]cn1)C(=O)N[C@@](C)(Cc1ccccc1F)C(=O)N[C@H](C(=O)NC(C)(C)C(=O)N[C@@H](CC(=O)O)C(=O)N[C@@H](Cc1ccc(-c2ccccc2)cc1)C(=O)N[C@@H](Cc1ccc(-c2ccccc2)cc1)C(N)=O)[C@@H](C)O [3-36, H2N-His-Aib-Glu-Gly-Thr-αMePhe(2-F)-Thr-Aib-Asp-Bip-Bip-C(O)NH2] (H-H[Aib]EGT[αMePhe(2-F)]T[Aib]D[Bip][Bip]-NH2)

EC50 (Table 2): > 1000 nM
Compound: C[C@H](NC(=O)[C@H](Cc1ccc(-c2ccccc2)cc1)NC(=O)[C@H](CC(=O)O)NC(=O)[C@H](CO)NC(=O)[C@@H](NC(=O)[C@H](Cc1ccccc1F)NC(=O)[C@@H](NC(=O)CNC(=O)[C@H](CCC(=O)O)NC(=O)C(C)(C)NC(=O)[C@@H](N)Cc1c[nH]cn1)[C@@H](C)O)[C@@H](C)O)C(N)=O [3-29, H2N-His-Aib-Glu-Gly-Thr-Phe(2-F)-Thr-Ser-Asp-Bip-Ala-C(O)NH2]

EC50 (Table 6): 14 nM
Compound: C[C@@H](O)[C@H](NC(=O)CNC(=O)[C@H](CCC(=O)O)NC(=O)C(C)(C)NC(=O)[C@@H](N)Cc1c[nH]cn1)C(=O)N[C@@](C)(Cc1ccccc1F)C(=O)N[C@H](C(=O)N[C@@H](CO)C(=O)N[C@@H](CC(=O)O)C(=O)N[C@@H](Cc1ccc(-c2ccccc2)cc1)C(=O)N[C@@H](Cc1ccc(-c2ccccc2)cc1)C(=O)NCCOCCOCC(=O)NCCOCCOCC(=O)NCCOCCOCC(=O)N[C@@H](CCCCN)C(N)=O)[C@@H](C)O [4-57, H2N-His-Aib-Glu-Gly-Thr-α-MePhe(2-F)-Thr-Ser-Asp-Bip-Bip-C(O)NH-RY13] (H-H[Aib]EGT[αMePhe(2-F)]TSD[Bip][Bip][AEEA][AEEA][AEEA]K-NH2)

EC50 (Table 4): 8.3 nM
Compound: C[C@@H](O)[C@H](NC(=O)CNC(=O)[C@H](CCC(=O)O)NC(=O)[C@]1(C)CCCN1C(=O)[C@@H](N)Cc1c[nH]cn1)C(=O)N[C@@](C)(Cc1ccccc1)C(=O)N[C@H](C(=O)N[C@@H](CO)C(=O)N[C@@H](CC(=O)O)C(=O)N[C@@H](Cc1ccc(-c2ccccc2)cc1)C(=O)NC(C)(C)C(N)=O)[C@@H](C)O [3-61, H2N-His-α-MePro-Glu-Gly-Thr-α-MePhe-Thr-Ser-Asp-Bip-Aib-C(O)NH2] (H-H[αMeP]EGT[αMeF]TSD[Bip][Aib]-NH2)

EC50 (Table 6): 1.4 nM
Compound: C[C@@H](O)[C@H](NC(=O)CNC(=O)[C@H](CCC(=O)O)NC(=O)[C@]1(C)CCCN1C(=O)[C@@H](N)Cc1c[nH]cn1)C(=O)N[C@@](C)(Cc1ccccc1F)C(=O)N[C@H](C(=O)N[C@@H](CO)C(=O)N[C@@H](CC(=O)O)C(=O)N[C@@H](Cc1ccc(-c2ccccc2)cc1)C(=O)N[C@@H](Cc1ccc(-c2ccccc2)cc1)C(=O)NC(C)(C)C(=O)NCCOCCOCC(=O)NCCOCCOCC(=O)NCCOCCOCC(=O)NC[C@H](NC(=O)CCc1ccc(I)cc1)C(=O)O)[C@@H](C)O [4-62, H2N-His-α-MePro-Glu-Gly-Thr-α-MePhe(2-F)-Thr-Ser-Asp-Bip-Bip-C(O)NH-RY18] (H-H[αMeP]EGT[αMePhe(2-F)]TSD[Bip][Bip][Aib][AEEA][AEEA][AEEA]-X2)
